Laboratory results as given in article PMC3811095 (Chemical science (Royal Society of Chemistry : 2010), 2011).

Legend:
MT-2 human T-cells = experiment: General cytotoxicity in MT-2 cells in the absence of virus
[1] = test system: wild-type IIIB strain of HIV-1 in MT-2 human T-cells; experiment: Antiviral activity against HIV-1; assay type: cell-based; settings: HIV-1 IIIB, MT-2 cells, multiplicity of infection 0.1; activity above background

Row | SMILES | general cytotoxicity (in words) (MT-2 human T-cells; same (low nanomolar) range of concentrations) | IC50 (MT-2 human T-cells; read-out: IC50 (general cytotoxicity), absence of virus, concentration at which 50 % of the cells are killed) [nM] | protection of cells from cell death due to viral killing [1]
1 | O=C1Nc2ccc(Cl)cc2[C@@](C#CC2CC2)(C(F)(F)F)O1 [Efavirenz, reference compound] | no general cytotoxicity | – | –
2 | C[C@H]1CCCC[C@H]2C(=O)C=C[C@H](O)[C@@H]2CC(=O)O1 [Sch-642305] | – | 750 | below 50%
